Where a SMILES comes first, the peptide text is derived from it. [ ]: non-standard residue; d: D form. The star is where a group is joined. DON = [N-]=[N+]=CC(=O)CC[C@H](N)C(=O)O; Cbz = O=C(OCc1ccccc1)*

Test [1] addresses T1, CFTR (Homo sapiens, UniProt P13569).
T1 construct: Immunoprecipitations of endogenous proteins were performed on 500 μg of lysates from Caco-2 cells; host or cells: Caco-2, T84
In words: CFTR channel function in intestinal epithelial cells (forskolin-induced Isc in Ussing chambers; SPQ iodide efflux). The settings on record: 20 μg/ml peptide; intestinal epithelial cells (Caco-2, T84). The class given is cell-based. Here is the method:
Human colon adenocarcinoma-derived Caco-2 and T84 cells (Barone, M. V. et al. 2014; Luciani, A. et al. 2010) were obtained from the ATCC. Cells were maintained in T25 flask in Modified Eagle Medium (MEM) for Caco-2, or Ham's F12+DMEM (1:1) for T84, supplemented with 10% fetal bovine serum (FBS), 2 mM Glutamine+1% Non Essential Amino Acids (NEAA) and the antibiotics penicillin\streptomycin (100 units/ml) (all reagents from Lonza). Caco-2 cells were grown in Transwells (Corning, 3470 or 3460) under the normal condition. Briefly, 8×10^4 or 5×10^5 cells were seeded in 6.5-mm diameter or 12-mm diameter, respectively, and grown until the RT reached 800 to 1,200 Ω·cm^2. Transwells with a pore size of 0.4 μm were used. Medium in both the apical and baso lateral chambers was changed every other day. Cells were treated with 20 μg/ml of either with the α-gliadin peptide comprising the P31-43 amino acid sequence of α-gliadin LGQQQPFPPQQPY (SEQ ID 1) (below referred to as P31-43), which is known to induce an enterocyte stress response (Meresse, B. et al.2009; Barone, M. V. et al. 2014; Luciani, A. et al. 2010), the T-cell activating α-gliadin peptide comprising the P57-68 amino acid sequence of α-gliadin (QLQPFPQPQLPY SEQ ID 2)) (below referred to as P57-68) (Maiuri, L., et al. 2003; Meresse, B. et al.2009; 30 Barone, M. V. et al. 2014), or the scrambled GAVAAVGVVAGA (SEQ ID 3) control peptide (below referred to as PGAV), or with different modified P31-43, either biotin-tagged or not, for different time points (from 1 h short challenge up to 24 h). Cells were also treated with 50 or 100 5 μg/ml of P57-68 or PGAV peptides for 3 h.
Caco-2 or T84 cells were also treated with: CFTR potentiators VX-770 (Ivacaftor) (10 μM) or VX-532 (20 μM) (Selleck chemicals) or Genistein (10 μM) (Verkman, A. S. et al. 2005; Jih, K. Y. et al. 2013) (Sigma-Aldrich) or in presence or absence of CFTR inhibitor172 (CFTRinh172, 20 μM).
Human colon adenocarcinoma-derived Caco-2 and T84 cells were obtained from the ATCC. Cells were maintained in T25 flask in Modified Eagle Medium (MEM) for Caco-2, or Ham's F12+DMEM (1:1) for T84, supplemented with 10% fetal bovine serum (FBS), 2 mM Glutamine+1% Non Essential Amino Acids (NEAA) and the antibiotics penicillin\streptomycin (100 units/ml) (all reagents from Lonza) (Luciani, A., et al. 2010. Cells were grown in Transwells (Corning, 3470 or 3460) under the normal condition (Luciani, A., et al. 2012). Briefly, 8×10^4 or 5×10^5 cells were seeded in 6.5-mm diameter or 12-mm diameter, respectively, and grown until the RT reached 800 to 1,200 Ω·cm2. Transwells with a pore size of 0.4 μm were used. Medium in both the apical and basolateral chambers was changed every other day. […]

In test [2] the test system is recombinant human NBD1 (rhNBD1). In words: Surface plasmon resonance peptide-protein interaction. The class given is binding. To be noted: rhNBD1 immobilized on chip, different peptide concentrations. Here is the method: Peptide-protein interactions were studied using a Biacore™ T100 (GE Healthcare) instrument. hrNBD1 domain or the indicated biotinylated peptides were immobilized by thiol coupling on a CMS (series S) sensor chip to a final density of 2000 resonance units (RU) or by biotin-streptavidin capture on a SA (series S) sensor chip to a final density of 250 RU, respectively. A flow cell with no immobilized protein or peptide was used as control. Binding analysis was carried out at 20° C. in a running buffer consisting of 10 mM HEPES, pH 7.4, 150 mM NaCl, 0.05% (v/v) Tween-20, 2 mM ATP, 5 mM MgCl2, 1 mM DTT applying a flow rate of 20 μl/min. For each experiment a Biacore™ method program was used. It included a series of three start up injections (running buffer), zero control (running buffer) and different concentrations of ligand. […] Each sensorgram (time-course of the surface plasmon resonance signal) was corrected for the response obtained in the control flow cell and normalized to baseline. Data were analysed using the 2.0.3 BIAevaluation software (GE Healthcare). At least three independent experiments for each analysis were performed.
FIG. 2: a, Protein-Protein docking and Molecular Dynamics of P31-43 (violet) bound to NBD1 (orange). Left side: general view of P31-43 and NBD1 interaction. Upper right: detailed interaction pattern, highlighting the most important amino acids. Lower right: in silico NBD1/P31-43 complex compared to the original crystallographic positions of Tip 401 and ATP. b, Graphical view of the in silico sampling percentage of P31-43 against NBD1/NBD2 (left 10 panel), and of P31-43/4QA (4QA) against NBD1 (right panel). c-d, Surface plasmon resonance (SPR) analysis of rhNBD1 binding to P31-43 and P57-68 biotinylated peptides immobilized on SA sensor chip (c) and of increasing concentrations of P31-43 and P57-68 peptides 15 on rhNBD1 covalently bound to the CMS sensor chip (d).
In general terms: Surface plasmon resonance follows binding to a sensor surface in real time, without labels.

For test [3], the target named is T1, CFTR. Put plainly: Co-immunoprecipitation of biotinylated peptides with CFTR in Caco-2 cells. The class given is cell-based. To be noted: 1 h with biotinylated peptides.
Description: Human colon adenocarcinoma-derived Caco-2 and T84 cells were obtained from the ATCC. Cells were maintained in T25 flask in Modified Eagle Medium (MEM) for Caco-2, or Ham's F12+DMEM (1:1) for T84, supplemented with 10% fetal bovine serum (FBS), 2 mM Glutamine+1% Non Essential Amino Acids (NEAA) and the antibiotics penicillin\streptomycin (100 units/ml) (all reagents from Lonza) (Luciani, A., et al. 2010. Cells were grown in Transwells (Corning, 3470 or 3460) under the normal condition (Luciani, A., et al. 2012). Briefly, 8×10^4 or 5×10^5 cells were seeded in 6.5-mm diameter or 12-mm diameter, respectively, and grown until the RT reached 800 to 1,200 Ω·cm2. Transwells with a pore size of 0.4 μm were used. Medium in both the apical and basolateral chambers was changed every other day. […] Cells were also treated with 50 or 100 μg/ml of P57-68 or PGAV peptides for 3 h. Caco-2 or T84 cells were also treated with: CFTR potentiators VX-770 (10 μM) or VX-532 (20 μM) (Selleck chemicals) or Genistein (10 μM) (Sigma-Aldrich) or in presence or absence of CFTR inhibitor172 (CFTRinh172, 20 μM) or 3-methyl-adenine (3-MA, 20 μM) (Calbiochem), Z-DON (20 nM, Zedira) or BAPTA-AM (10 μM, Calbiochem).
The separation of endosomal fractions was performed as described^9 from treated and untreated cells. Protein of endosomal fraction were resolved by SDS-Page and blotted with primary antibodies against Rab-5(Abcam 18211) 1:500, Rab-7(Abcam 77993) 1:500, EEA-1 (Abcam 2900) 1:500, TG2 or CFTR. EEA-1 was used as early endosome marker. For detection of complex with biotnylated-P31-43, the beads were resolved in non-reducing and non-denaturating conditions, and then blotted with Streptavidin-HRP (Sigma S2438) 1:3000 or anti-biotin (Abcam ab2103) 1:2500.
In another test the target is T2, TG2 (Homo sapiens, UniProt P21980).
T2 construct: Immunoprecipitations of endogenous proteins were performed on 500 μg of lysates from Caco-2 cells; host or cells: Caco-2
T2 sequence (P21980 1-687): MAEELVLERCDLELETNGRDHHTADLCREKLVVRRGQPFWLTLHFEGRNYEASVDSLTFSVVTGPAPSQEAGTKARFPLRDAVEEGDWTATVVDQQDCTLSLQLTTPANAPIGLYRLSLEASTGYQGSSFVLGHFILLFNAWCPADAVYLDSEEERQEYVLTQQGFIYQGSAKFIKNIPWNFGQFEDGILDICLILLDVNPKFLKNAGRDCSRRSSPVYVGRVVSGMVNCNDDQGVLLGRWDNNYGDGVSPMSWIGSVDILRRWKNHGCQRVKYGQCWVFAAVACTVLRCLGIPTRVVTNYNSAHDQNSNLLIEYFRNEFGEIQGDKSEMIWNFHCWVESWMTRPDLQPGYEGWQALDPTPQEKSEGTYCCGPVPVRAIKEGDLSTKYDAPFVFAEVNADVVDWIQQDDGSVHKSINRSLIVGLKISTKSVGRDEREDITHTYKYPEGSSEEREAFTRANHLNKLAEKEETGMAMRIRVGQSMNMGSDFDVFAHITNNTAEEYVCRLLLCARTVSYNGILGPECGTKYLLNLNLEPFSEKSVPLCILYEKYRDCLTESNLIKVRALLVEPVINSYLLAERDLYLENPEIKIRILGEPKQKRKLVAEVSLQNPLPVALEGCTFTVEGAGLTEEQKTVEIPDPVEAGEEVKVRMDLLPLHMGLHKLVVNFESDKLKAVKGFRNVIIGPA
In words: TG2 interaction and TG2 activity in Caco-2 cells. The class given is cell-based. To be noted: Caco-2 cells. Here is the method:
Human colon adenocarcinoma-derived Caco-2 and T84 cells were obtained from the ATCC. Cells were maintained in T25 flask in Modified Eagle Medium (MEM) for Caco-2, or Ham's F12+DMEM (1:1) for T84, supplemented with 10% fetal bovine serum (FBS), 2 mM Glutamine+1% Non Essential Amino Acids (NEAA) and the antibiotics penicillin\streptomycin (100 units/ml) (all reagents from Lonza) (Luciani, A., et al. 2010. Cells were grown in Transwells (Corning, 3470 or 3460) under the normal condition (Luciani, A., et al. 2012). Briefly, 8×10^4 or 5×10^5 cells were seeded in 6.5-mm diameter or 12-mm diameter, respectively, and grown until the RT reached 800 to 1,200 Ω·cm2. Transwells with a pore size of 0.4 μm were used. Medium in both the apical and basolateral chambers was changed every other day. Cells were treated with 20 μg/ml of either α-gliadin peptide P31-43 or […] or scrambled PGAV or modified P31-43 either biotin-tagged or not, for different time point (from 1 h short challenge up to 24 h). Cells were also treated with 50 or 100 μg/ml of P57-68 or PGAV peptides for 3 h. Caco-2 or T84 cells were also treated with: CFTR potentiators VX-770 (10 μM) or VX-532 (20 μM) (Selleck chemicals) or Genistein (10 μM) (Sigma-Aldrich) or in presence or absence of CFTR inhibitor172 (CFTRinh172, 20 μM) or 3-methyl-adenine (3-MA, 20 μM) (Calbiochem), Z-DON (20 nM, Zedira) or BAPTA-AM (10 μM, Calbiochem).
The whole lysate or membrane fraction proteins of cell lines and mice intestine homogenates were obtained from treated and untreated cells or mice as described. The equal amount of protein were resolved by SDS-PAGE gel and blotted with antibodies against: SQSTM1, (Sigma Aldrich, 108k4767) 1:1000, PPARγ (Santa Cruz Biotechnology, sc7273) 1:500, BECN1 (Abcam, ab58878) 1:1000, CFTR clone M3A7 (Abcam, ab4067) 1:500, phospho-ERK1/2 (php42/44, Cell Signaling Technology, #91101) 1:1000, UVRAG (Santa Cruz Biotechnology sc8215) 1:1000, NHERF-1 (BD, 611161) 1:1000, EZRIN (BD, 610603) 1:1000, hVps34 (SigmaV9764) 1:300, biotin (Abcam, ab1227) 1:2000, PKAr2a (BD, 610625) 1:500, Ubiquitin (Cell Signaling clone P4D1, #3936) 1:1000, CHIP (Calbiochem PC711) 1:500, Caspase-1 p10 (M-20) (Santa Cruz Biotechnology, sc-514) 1:200, NLRP3 (Abcam, ab4207), 1:500, IDO1 (monoclonal; cv152) 1:1000^[80], used as primary antibodies. Normalization was performed by probing the membrane with anti-β-actin (Cell Signaling, #4970) 1:1000, anti-Gapdh (Sigma-Aldrich, G8795) 1:1000 and anti-flottilin (Abcam ab15148) 1:1000 antibodies. Immunoprecipitations of endogenous proteins were performed on 500 μg of lysates from Caco-2 cells. The proteins were incubated for 12-18 h at 4° C. with 10 ug\ml of specific antibody followed by the addition of Protein A/G-agarose beads for 4 h at 4° C. The beads were then washed three times with lysis buffer and Laemmli's sample buffer was added to the samples. The membranes were then blotted with: CFTR clone CF3 (Abcam, ab2784) 1:1000, TG2 (clone CUB7402; NeoMarkers) 1:1000, CHIP (Calbiochem PC711) 1:500, Ubiquitin (Cell Signaling clone P4D1 3936), isopeptide (Abcam 422) 1:1000, PKAR2 (BD 610625) 1:500.
For detection of complex with biotnylated-P31-43 or immune-complex of glutamime-lysine bonds, the beads were resolved in non-reducing and non-denaturating conditions, and then blotted with Streptavidin-HRP (Sigma 52438) 1:3000 or anti-biotin (Abcam ab2103) 1:2500 and anti-isopeptide (Abcam 422) 1:1000.
TG2 enzymatic activity in Caco-2, treated as described above, was detected: 1) by incubating unfixed sections with biotin-mono-dansylcadaverine (MDC, 10 mM, Molecular Probe) for 1 h at room temperature and then stained with Alexa-fluor488-Streptavidin, as previously described (JI2008/2009) or 2) or by incorporation of 5(biotinamido)pentylamines (BAP) into protein substrates. For BAP-incorporation, 2 mM BAP (Soltec Ventures, B110) were directly added into the medium together with the indicated treatments. […]

T1 sequence (P13569 whole entry): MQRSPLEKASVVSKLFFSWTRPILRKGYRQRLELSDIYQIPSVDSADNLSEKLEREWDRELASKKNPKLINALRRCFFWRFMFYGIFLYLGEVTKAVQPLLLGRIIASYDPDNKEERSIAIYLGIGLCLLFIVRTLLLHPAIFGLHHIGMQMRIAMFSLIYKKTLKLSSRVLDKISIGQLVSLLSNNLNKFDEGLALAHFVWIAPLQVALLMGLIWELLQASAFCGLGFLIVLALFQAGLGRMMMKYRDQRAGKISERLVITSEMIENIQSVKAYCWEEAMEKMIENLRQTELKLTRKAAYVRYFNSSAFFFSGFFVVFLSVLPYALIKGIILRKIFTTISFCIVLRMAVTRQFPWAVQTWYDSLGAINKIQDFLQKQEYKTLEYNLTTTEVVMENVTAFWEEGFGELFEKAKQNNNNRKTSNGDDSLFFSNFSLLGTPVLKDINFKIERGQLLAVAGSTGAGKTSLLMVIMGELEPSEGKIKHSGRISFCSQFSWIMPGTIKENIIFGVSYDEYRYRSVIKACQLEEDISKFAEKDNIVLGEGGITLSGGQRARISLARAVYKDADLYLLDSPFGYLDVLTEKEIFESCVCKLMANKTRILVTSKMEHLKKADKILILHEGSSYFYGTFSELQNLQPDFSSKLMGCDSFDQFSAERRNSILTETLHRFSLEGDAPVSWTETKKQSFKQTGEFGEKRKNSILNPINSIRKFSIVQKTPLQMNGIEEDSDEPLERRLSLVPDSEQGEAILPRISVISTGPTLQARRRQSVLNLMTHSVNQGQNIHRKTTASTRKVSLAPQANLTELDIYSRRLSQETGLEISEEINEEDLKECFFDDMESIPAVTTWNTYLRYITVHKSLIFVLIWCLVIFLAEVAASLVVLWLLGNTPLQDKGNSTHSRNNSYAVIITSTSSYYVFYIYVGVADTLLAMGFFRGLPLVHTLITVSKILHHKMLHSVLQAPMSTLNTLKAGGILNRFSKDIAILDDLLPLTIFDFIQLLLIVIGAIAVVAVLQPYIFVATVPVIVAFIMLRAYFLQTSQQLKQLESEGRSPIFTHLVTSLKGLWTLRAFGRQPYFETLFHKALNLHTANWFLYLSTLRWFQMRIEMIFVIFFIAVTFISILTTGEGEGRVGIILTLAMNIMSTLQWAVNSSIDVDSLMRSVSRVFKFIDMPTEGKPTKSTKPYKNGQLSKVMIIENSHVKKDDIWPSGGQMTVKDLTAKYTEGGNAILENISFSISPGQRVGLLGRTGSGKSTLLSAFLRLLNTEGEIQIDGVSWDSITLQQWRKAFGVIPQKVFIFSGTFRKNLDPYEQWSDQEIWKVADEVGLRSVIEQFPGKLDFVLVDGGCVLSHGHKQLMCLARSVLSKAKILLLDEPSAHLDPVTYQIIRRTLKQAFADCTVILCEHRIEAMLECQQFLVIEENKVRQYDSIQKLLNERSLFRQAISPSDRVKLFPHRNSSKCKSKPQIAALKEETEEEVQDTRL

For the compound “4QA: P31-43 with glutamines at residues 4, 5, 10 and 11 substituted with alanines, LGQAAPFPPAAPY (SEQ ID 4) (P31-43 sequence of alpha gliadin with glutamine residues at positions 4, 5, 10 and 11 substituted with alanines)”, the “reduction of CFTR channel function in response to forskolin” value in the test with CFTR [1] was “failed to interact with CFTR and to inhibit its function”. Also, the “SPR signal on immobilized rhNBD1” value in test [2] was “failed to interact with NBD1”. The entries for the “interaction (co-immunoprecipitation) with CFTR” value with CFTR [3] and with CFTR [3] (listed as Q4A) were “failed to interact with CFTR” and “did not co-immunoprecipitate with CFTR”, respectively. In the case of `CC(=O)OCOC(=O)CN(CC(=O)OCOC(C)=O)c1ccccc1OCCOc1ccccc1N(CC(=O)OCOC(C)=O)CC(=O)OCOC(C)=O` [BAPTA-AM], at TG2, the “effect on P31-43-induced interaction of TG2 and CFTR” value was “prevented”. The same measure, in the same setting: in the case of `COC(=O)[C@H](CC(C)C)NC(=O)[C@@H]1CCCN1C(=O)[C@@H](NC(=O)[C@H](CCC(=O)C=[N+]=[N-])NC(=O)OCc1ccccc1)C(C)C` [Z-DON] (Cbz-[DON]VPL-OMe) it was “prevented”. Take “P57-68: T-cell activating α-gliadin peptide QLQPFPQPQLPY (SEQ ID 2) (P57-68 sequence of alpha-gliadin)”: in test [2], the “SPR signal on immobilized rhNBD1” value is reported as “failed to induce any signal”.

The values are drawn from patent publication US20200206198A1, “CFTR CHANNEL ACTIVATOR FOR USE IN THE TREATMENT AND/OR PREVENTION OF GLUTEN SENSITIVITY CONDITIONS” (priority 2017, published 2020).
